Data as given in patent publication US12194124B2, “Personal care compositions for treating odor causing bacteria and methods for the same” (Colgate-Palmolive Company, priority 2019, dated 2025).

Tested on: S. Haemolyticus
Experiment: Growth inhibition assay in 96-well plate, optical density of S. Haemolyticus
Format: cell-based, Staphylococcus haemolyticus
Protocol: The efficacy of 2-butyl octanol for selectively promoting, inhibiting, reducing, and/or treating bacterial growth was evaluated. Particularly, the efficacy of 2-butyl octanol for selectively promoting, inhibiting, reducing, and/or treating bacterial growth of Corynebacterium and Staphylococcus was evaluated. To evaluate the efficacy, an active solution was prepared by emulsifying 2-butyl octanol with a nonionic surfactant, namely, Polysorbate 80. The active solution included the 2-butyl octanol and the Polysorbate 80 in a ratio of about 83:17. Both positive controls (including no active solution) and negative controls (including no bacteria) were also prepared.
A 96-well plate was utilized to evaluate the growth of the respective bacteria at varying dilutions. Each of the wells of a 96-well plate was aseptically filled with about 100 μL of Tryptic Soy Broth (TSB). In the first well of each row, about 100 μL of either the active solution (including the 2-butyl octanol and Polysorbate 80) or the desired solvent for the respective positive and negative controls was added to thereby provide a total of about 200 μL in the first well of the each respective row. A multi-channel pipette was then utilized to prepare a two-fold dilution in each column. Specifically, a multi-channel pipette set to about 100 μL was utilized to mix and transfer about 100 μL of the 200 μL from the wells of the first column to the respective wells of a subsequent column. This was repeated for each of the remaining eleven columns. About 100 μL of the twelfth column was removed, thereby leaving about 100 μL in each of the 96 wells. […] Specifically, a phosphate buffered saline (PBS) was utilized for the negative control. About 100 μL of the respective bacteria adjusted to 0.1 optical density (OD) bacteria was added to all other wells. The well plate was then incubated overnight at about 37° C. in a growth inhibition assay machine. Measurements were taken at about one hour increments.

Structure (SMILES): CCCCCCC(CO)CCCC (stereo not shown) [2-butyl octanol, 2-butyl-1-octanol]
- Measured Optical Density of S. Haemolyticus (0.02% 2-Butyl Octanol, 1 Hour): 0.017
- Measured Optical Density of S. Haemolyticus (0.02% 2-Butyl Octanol, 2 Hour): 0.129
- Measured Optical Density of S. Haemolyticus (0.02% 2-Butyl Octanol, 3 Hour): 0.203
- Measured Optical Density of S. Haemolyticus (0.02% 2-Butyl Octanol, 4 Hour): 0.218
- Measured Optical Density of S. Haemolyticus (0.02% 2-Butyl Octanol, 5 Hour): 0.272
- Measured Optical Density of S. Haemolyticus (0.02% 2-Butyl Octanol, 6 Hour): 0.34
- Measured Optical Density of S. Haemolyticus (0.02% 2-Butyl Octanol, 7 Hour): 0.426
- Measured Optical Density of S. Haemolyticus (0.02% 2-Butyl Octanol, 8 Hour): 0.503
- Measured Optical Density of S. Haemolyticus (0.02% 2-Butyl Octanol, 9 Hour): 0.558
- Measured Optical Density of S. Haemolyticus (0.02% 2-Butyl Octanol, 10 Hour): 0.616
- Measured Optical Density of S. Haemolyticus (0.02% 2-Butyl Octanol, 11 Hour): 0.649
- Measured Optical Density of S. Haemolyticus (0.02% 2-Butyl Octanol, 12 Hour): 0.671
- Measured Optical Density of S. Haemolyticus (0.02% 2-Butyl Octanol, 13 Hour): 0.702
- Measured Optical Density of S. Haemolyticus (0.02% 2-Butyl Octanol, 14 Hour): 0.719
- Measured Optical Density of S. Haemolyticus (0.02% 2-Butyl Octanol, 15 Hour): 0.724
- Measured Optical Density of S. Haemolyticus (0.02% 2-Butyl Octanol, 16 Hour): 0.735
- Measured Optical Density of S. Haemolyticus (0.02% 2-Butyl Octanol, 17 Hour): 0.748
- Measured Optical Density of S. Haemolyticus (0.02% 2-Butyl Octanol, 18 Hour): 0.751
- Measured Optical Density of S. Haemolyticus (0.04% 2-Butyl Octanol, 1 Hour): 0.026
- Measured Optical Density of S. Haemolyticus (0.04% 2-Butyl Octanol, 2 Hour): 0.153
- Measured Optical Density of S. Haemolyticus (0.04% 2-Butyl Octanol, 3 Hour): 0.237
- Measured Optical Density of S. Haemolyticus (0.04% 2-Butyl Octanol, 4 Hour): 0.247
- Measured Optical Density of S. Haemolyticus (0.04% 2-Butyl Octanol, 5 Hour): 0.286
- Measured Optical Density of S. Haemolyticus (0.04% 2-Butyl Octanol, 6 Hour): 0.328
- Measured Optical Density of S. Haemolyticus (0.04% 2-Butyl Octanol, 7 Hour): 0.389
- Measured Optical Density of S. Haemolyticus (0.04% 2-Butyl Octanol, 8 Hour): 0.453
- Measured Optical Density of S. Haemolyticus (0.04% 2-Butyl Octanol, 9 Hour): 0.514
- Measured Optical Density of S. Haemolyticus (0.04% 2-Butyl Octanol, 10 Hour): 0.56
- Measured Optical Density of S. Haemolyticus (0.04% 2-Butyl Octanol, 11 Hour): 0.596
- Measured Optical Density of S. Haemolyticus (0.04% 2-Butyl Octanol, 12 Hour): 0.619
- Measured Optical Density of S. Haemolyticus (0.04% 2-Butyl Octanol, 13 Hour): 0.624
- Measured Optical Density of S. Haemolyticus (0.04% 2-Butyl Octanol, 14 Hour): 0.635
- Measured Optical Density of S. Haemolyticus (0.04% 2-Butyl Octanol, 15 Hour): 0.656
- Measured Optical Density of S. Haemolyticus (0.04% 2-Butyl Octanol, 16 Hour): 0.657
- Measured Optical Density of S. Haemolyticus (0.04% 2-Butyl Octanol, 17 Hour): 0.671
- Measured Optical Density of S. Haemolyticus (0.04% 2-Butyl Octanol, 18 Hour): 0.676
- Measured Optical Density of S. Haemolyticus (0.08% 2-Butyl Octanol, 1 Hour): 0.039
- Measured Optical Density of S. Haemolyticus (0.08% 2-Butyl Octanol, 2 Hour): 0.205
- Measured Optical Density of S. Haemolyticus (0.08% 2-Butyl Octanol, 3 Hour): 0.308
- Measured Optical Density of S. Haemolyticus (0.08% 2-Butyl Octanol, 4 Hour): 0.317
- Measured Optical Density of S. Haemolyticus (0.08% 2-Butyl Octanol, 5 Hour): 0.355
- Measured Optical Density of S. Haemolyticus (0.08% 2-Butyl Octanol, 6 Hour): 0.401
- Measured Optical Density of S. Haemolyticus (0.08% 2-Butyl Octanol, 7 Hour): 0.462
- Measured Optical Density of S. Haemolyticus (0.08% 2-Butyl Octanol, 8 Hour): 0.53
- Measured Optical Density of S. Haemolyticus (0.08% 2-Butyl Octanol, 9 Hour): 0.58
- Measured Optical Density of S. Haemolyticus (0.08% 2-Butyl Octanol, 10 Hour): 0.614
- Measured Optical Density of S. Haemolyticus (0.08% 2-Butyl Octanol, 11 Hour): 0.637
- Measured Optical Density of S. Haemolyticus (0.08% 2-Butyl Octanol, 12 Hour): 0.647
- Measured Optical Density of S. Haemolyticus (0.08% 2-Butyl Octanol, 13 Hour): 0.673
- Measured Optical Density of S. Haemolyticus (0.08% 2-Butyl Octanol, 14 Hour): 0.683
- Measured Optical Density of S. Haemolyticus (0.08% 2-Butyl Octanol, 15 Hour): 0.693
- Measured Optical Density of S. Haemolyticus (0.08% 2-Butyl Octanol, 16 Hour): 0.708
- Measured Optical Density of S. Haemolyticus (0.08% 2-Butyl Octanol, 17 Hour): 0.733
- Measured Optical Density of S. Haemolyticus (0.08% 2-Butyl Octanol, 18 Hour): 0.744
- Measured Optical Density of S. Haemolyticus (0.16% 2-Butyl Octanol, 1 Hour): 0.049
- Measured Optical Density of S. Haemolyticus (0.16% 2-Butyl Octanol, 2 Hour): 0.175
- Measured Optical Density of S. Haemolyticus (0.16% 2-Butyl Octanol, 3 Hour): 0.26
- Measured Optical Density of S. Haemolyticus (0.16% 2-Butyl Octanol, 4 Hour): 0.285
- Measured Optical Density of S. Haemolyticus (0.16% 2-Butyl Octanol, 5 Hour): 0.326
- Measured Optical Density of S. Haemolyticus (0.16% 2-Butyl Octanol, 6 Hour): 0.39
- Measured Optical Density of S. Haemolyticus (0.16% 2-Butyl Octanol, 7 Hour): 0.464
- Measured Optical Density of S. Haemolyticus (0.16% 2-Butyl Octanol, 8 Hour): 0.524
- Measured Optical Density of S. Haemolyticus (0.16% 2-Butyl Octanol, 9 Hour): 0.579
- Measured Optical Density of S. Haemolyticus (0.16% 2-Butyl Octanol, 10 Hour): 0.627
- Measured Optical Density of S. Haemolyticus (0.16% 2-Butyl Octanol, 11 Hour): 0.66
- Measured Optical Density of S. Haemolyticus (0.16% 2-Butyl Octanol, 12 Hour): 0.684
- Measured Optical Density of S. Haemolyticus (0.16% 2-Butyl Octanol, 13 Hour): 0.71
- Measured Optical Density of S. Haemolyticus (0.16% 2-Butyl Octanol, 14 Hour): 0.719
- Measured Optical Density of S. Haemolyticus (0.16% 2-Butyl Octanol, 15 Hour): 0.724
- Measured Optical Density of S. Haemolyticus (0.16% 2-Butyl Octanol, 16 Hour): 0.74
- Measured Optical Density of S. Haemolyticus (0.16% 2-Butyl Octanol, 17 Hour): 0.756
- Measured Optical Density of S. Haemolyticus (0.16% 2-Butyl Octanol, 18 Hour): 0.77
- growth of S. hominis (2-butyl octanol about 0.02 weight % to about 5.2 weight %): did not inhibit the growth of and/or promoted the growth of
- Measured Optical Density of S. Haemolyticus (5.2% 2-Butyl Octanol, 1 Hour): 0.198
- Measured Optical Density of S. Haemolyticus (5.2% 2-Butyl Octanol, 2 Hour): 0.254
- Measured Optical Density of S. Haemolyticus (5.2% 2-Butyl Octanol, 3 Hour): 0.345
- Measured Optical Density of S. Haemolyticus (5.2% 2-Butyl Octanol, 4 Hour): 0.383
- Measured Optical Density of S. Haemolyticus (5.2% 2-Butyl Octanol, 5 Hour): 0.396
- Measured Optical Density of S. Haemolyticus (5.2% 2-Butyl Octanol, 6 Hour): 0.384
- Measured Optical Density of S. Haemolyticus (5.2% 2-Butyl Octanol, 7 Hour): 0.403
- Measured Optical Density of S. Haemolyticus (5.2% 2-Butyl Octanol, 8 Hour): 0.477
- Measured Optical Density of S. Haemolyticus (5.2% 2-Butyl Octanol, 9 Hour): 0.549
- Measured Optical Density of S. Haemolyticus (5.2% 2-Butyl Octanol, 10 Hour): 0.603
- Measured Optical Density of S. Haemolyticus (5.2% 2-Butyl Octanol, 11 Hour): 0.622
- Measured Optical Density of S. Haemolyticus (5.2% 2-Butyl Octanol, 12 Hour): 0.639
- Measured Optical Density of S. Haemolyticus (5.2% 2-Butyl Octanol, 13 Hour): 0.654
- Measured Optical Density of S. Haemolyticus (5.2% 2-Butyl Octanol, 14 Hour): 0.681
- Measured Optical Density of S. Haemolyticus (5.2% 2-Butyl Octanol, 15 Hour): 0.699
- Measured Optical Density of S. Haemolyticus (5.2% 2-Butyl Octanol, 16 Hour): 0.722
- Measured Optical Density of S. Haemolyticus (5.2% 2-Butyl Octanol, 17 Hour): 0.742
- Measured Optical Density of S. Haemolyticus (5.2% 2-Butyl Octanol, 18 Hour): 0.752
